Broadly, the efflux ratio is the permeability from basolateral to apical divided by that in the opposite direction, in the common usage. By pIC50 is commonly meant the negative decadic logarithm of the IC50, by convention in mol/L. Broadly, the IC90 is the concentration needed for an effect of 90%. Usually MIC stands for the lowest concentration found to suppress growth.

pIC50: −log10 of the molar value.

One data set in a line: in vitro. As to conditions: human.
The subject of the next data set is Caco-2-cell monolayer. The data set can be described thus: Caco-2 permeability assay. The protocol: The Caco-2 cell layer permeability assay is widely used as a more predictive in vitro model of absorption through the intestinal epithelium. […] For B–A permeability, test compound was added to the basal side of the Caco-2 monolayer and the transport of the compound to the apical side monitored. The amount of compound present in each compartment was quantified by LC-MS/MS.
recovered and analyzed by LC-MS/MS.
3.2. Caco-2 Permeability Assay
feeding at 2-day intervals.
Each experiment included the
contained transport buffer at pH 7.4.
3.3. Cytochrome P450 Inhibition Assay
and was < 0.2%. Samples were run in duplicate. Compounds were incubated with human liver

The nature of data set [1]: Plasma protein binding by equilibrium dialysis. The settings on record: Human plasma protein binding assay.
The conditions of data set [2]: human.
The subject of data set [3] is THP-1 cell line infected with Mtb. Kind of data set: Intracellular activity assay, luminescence. Format: cell-based, Mycobacterium tuberculosis. The settings on record: Mtb-infected THP-1 cells, 72 h. The protocol:
Since the overall efficacy of any anti TB drug will be improved by its ability to traffic into the macrophage phagosome containing replicating bacteria, we evaluated the intracellular activity of compounds[24]. This was measured by using THP-1 cell line infected with Mtb. Infected cells were exposed to compounds for 72 h and viable bacterial counts were measured using luminescence as a measure of intracellular growth.
Assay (Promega) which uses ATP as an indicator of cell viability. Relative luminescent units (RLU) were measured using a Biotek Synergy 4 plate reader. The dose response curve was fitted using the Levenberg–Marquardt algorithm. The IC50 was defined as the compound […]
Intracellular Activity Assay
The activity of compounds against intracellular bacteria was determined by measuring viability in infected THP-1 cell after 3 days in the presence of test compounds. Compounds were prepared as 10-point three-fold serial dilutions in DMSO. The highest concentration of […]
THP-1 cells were cultured in complete RPMI and differentiated into macrophage-like cells using 80 nM PMA overnight at 37°C, 5% CO2. THP-1 cells were infected with a luminescent strain of H37Rv (which constitutively expresses luxABCDE) at a multiplicity of infection of 1 and incubated overnight at 37°C, 5% CO2. Infected cells were recovered using Accutase/EDTA solution, washed twice with PBS to remove extracellular bacteria and seeded into assay pates. Compound dilutions were added to a final DMSO concentration of 0.5%.
Assay plates were incubated for 72 h at 37°C, 5% CO2. Each run included isoniazid as a control. Relative luminescent units (RLU) were measured using a Biotek Synergy 2 plate reader. The dose response curve was fitted using the Levenberg–Marquardt algorithm. The […]
inhibition of growth respectively.
3. Cycle 3 – Absorption, distribution, metabolism, excretion and toxicity (ADMET)
3.1. Plasma Protein Binding Assay
Compounds were added to human plasma at a fixed concentration of 5 µM. The mixture was dialyzed in a RED device (Rapid Equilibrium Dialysis, Pierce) against PBS and incubated on an orbital shaker for 4 h at 37 °C. Aliquots from plasma and PBS sides were collected; an equal volume of PBS was added to the plasma sample, and an equal volume of plasma was added to the PBS sample. Three volumes of methanol (containing the internal binding standard propranolol) was added to precipitate the proteins and release the compound.
Each compound was tested in duplicate. Samples were centrifuged, the supernatant was […]

For a further data set, the system named is Mtb H37Rv. Kind of data set: LORA parallel plates, oxygen-deprived bacteria incubated under aerobic conditions (normal oxygen). Format: cell-based, Mycobacterium tuberculosis.
Data set [4] deals with THP-1 human monocytic cell line. The data set can be described thus: Cytotoxicity, THP-1 cell viability (CellTiter-Glo). The settings on record: read-out: Cytotoxicity IC50; THP-1 cells, 50% loss in viability, 3 days. (In general: Cellular ATP, detected with luciferase, serves as a proxy for viable cell number.)
Another data set relates to Mycobacterium abscessus. Kind of data set: MIC, IC50, IC90 against nontuberculous mycobacteria (OD590). The data set is classed as cell-based. The settings on record: M. abscessus.
In a further data set the test system is Mycobacterium avium. The data set can be described thus: MIC against nontuberculous mycobacteria (Alamar blue). Format: cell-based. As to conditions: M. avium.
Data set [5] concerns Mycobacterium tuberculosis H37Rv. Kind of data set: Primary screen (Cycle 1): MIC, IC50, IC90 under aerobic conditions. The data set is classed as cell-based.
Another data set deals with M. tuberculosis H37Rv. Kind of data set: Cycle 2 repeat of MIC, IC50, IC90 under aerobic conditions (lower starting concentrations). The data set is classed as cell-based, Mycobacterium tuberculosis. As to conditions: revaluation.
The mark [6] stands for this setting: M. tuberculosis H37Rv, aerobic conditions, primary screen.

On to `CC(=O)CC(c1ccccc1)c1c(O)c2ccccc2oc1=O` (centres unmarked) [Warfarin], for which the recovery at 4 h, 5 µM in “in vitro” was found to be 96.7%.

Turning to `CC(C)NC[C@H](O)COc1cccc2ccccc12` (racemic) [Propanolol], the “Mean A→B Papp” value in the data set on Caco-2-cell monolayer (Caco-2, apical to basolateral) is on record as 12.7 10^−6cm/s. Also, in the data set with Caco-2-cell monolayer (Caco-2, basolateral to apical), the “Mean B→A Papp” value was 25 10^−6cm/s. Also, the efflux ratio with Caco-2-cell monolayer (Re = Papp (B→A)/Papp (A→B)) is 2. Also, the Recovery in [1] turned out to be 93. In data set [2], the “Mean plasma fraction bound” value worked out at 79.3% and the “Mean plasma fraction unbound” value stood at 20.7%.

“4-[3-(4-Chlorophenyl)-1-(ethoxycarbonyl)indolizine-7-yl)-1-(2-(4-methoxyphenyl)-2-oxoethyl)pyridine-1-ium bromide [Compound 6c]”: the pIC50 in data set [3] (read-out: IC50 intracell) was 5.15; in the data set with Mtb H37Rv, 5.09; in [4], 5.39; in the data set with Mycobacterium abscessus it was 4.80; in data set [5] (setting [6]) it was 4.92; in the data set on M. tuberculosis H37Rv (aerobic), 5.17. For the same compound, the IC90 stood at 34 µM in data set [3] (read-out: IC90 intracell); 23 µM with Mtb H37Rv; 21 µM with Mycobacterium abscessus; 14 µM in [5] (setting [6]); 9.5 µM in the data set on M. tuberculosis H37Rv (aerobic). For the same compound, the minimum inhibitory concentration (MIC) with Mtb H37Rv (oxygen-deprived bacteria, aerobic 5 d) worked out at 75 µM; against Mycobacterium avium, 50 µM; in data set [5] (setting [6]) it was 15 µM; in data set [5] (MIC value taken from the first MIC assay), 15 µM; in the data set with M. tuberculosis H37Rv (repeated at lower starting concentrations, read-out: MIC aerobic condition) it was 9.5 µM.

The values are drawn from article PMC6021032, “Antimycobacterial activity of nitrogen heterocycles derivatives: 7-(pyridine-4-yl)-indolizine derivatives. Part VII^8–12” (Journal of Enzyme Inhibition and Medicinal Chemistry, 2017).
